In PMC10360169 (Frontiers in Immunology, 2023):

What follows are sequences tested on Acar19. Details: Table S5, half-life estimated from dissociation in scintillation proximity assay.
Format: binding, great reed warbler Acrocephalus arundinaceus

Sequence | Stability T½ (h), peptide - Acar19 [h]
IYYWTAWLI [9-mer peptide] | 0.2
KASSAWHYF [9-mer peptide] | 0.2
KDPENFDHF [9-mer peptide] | 0.2
KFHQIEKEF [9-mer peptide] | 0.3
KSNGAQQWL [9-mer peptide] | 0.1
LAASVFFTF [9-mer peptide] | 0.2
LFPELDCFF [9-mer peptide] | 1.6
LMNELGVPF [9-mer peptide] | 0.6
LRHSTAHLL [9-mer peptide] | 0.1
LYIEILRLL [9-mer peptide] | 0.1
LYPTFYCLF [9-mer peptide] | 0.4
MAMGILHTI [9-mer peptide] | 0.1
MFMMIFHFV [9-mer peptide] | 0.4
MPARLWLCL [9-mer peptide] | 0.9
MSNPLTSPI [9-mer peptide] | 6.3
MYLRTIYDL [9-mer peptide] | 4.0
MYMALIAAF [9-mer peptide] | 0.3
NAFHHPSAV [9-mer peptide] | 0.1
NHIRIEYII [9-mer peptide] | 0.4
NPLEIYQEI [9-mer peptide] | 0.8
NPSVLKILL [9-mer peptide] | 0.2
NTARLMAGA [9-mer peptide] | 0.2

Sequence | Stability T½ (h), peptide - Acar19 [h]
NTDEIPELI [9-mer peptide] | 0.2
NTFAAWLPM [9-mer peptide] | 0.6
NVGRILGYV [9-mer peptide] | 0.5
NYFNRMFHF [9-mer peptide] | 0.7
NYMPYVFTL [9-mer peptide] | 14.9
NYNGLLSSI [9-mer peptide] | 19.1
QRASNVFDL [9-mer peptide] | 0.2
QTSSIEGAW [9-mer peptide] | 0.1
QYPAFVLFI [9-mer peptide] | 0.2
RPAPATGAL [9-mer peptide] | 0.3
SFHIIEWLF [9-mer peptide] | 0.2
SFIPIFYQF [9-mer peptide] | 1.2
STAPTGSWF [9-mer peptide] | 0.2
STYGISEDL [9-mer peptide] | 0.1
SYLGLTQPF [9-mer peptide] | 0.2
SYLQAIGIL [9-mer peptide] | 0.1
SYQALAFDI [9-mer peptide] | 0.5
TFMGMNVQF [9-mer peptide] | 0.1
TFMYVFSTF [9-mer peptide] | 0.2
TNTQNNDWF [9-mer peptide] | 0.2
TTLSIYFLL [9-mer peptide] | 0.1
TYMFTHIDL [9-mer peptide] | 0.1
